What was measured:
[1] = biological target: human A2a adenosine receptor (Homo sapiens (Human), UniProt P29274); assay: A2a receptor affinity radioligand binding assay ([3H] SCH58261, membranes from HEK293 or CHO cells); conditions: for IC50: unstarred values: radioligand binding
In short: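 Displacement of tritiated SCH58261 (working dilution 4 nM) from recombinant human A2a receptor membranes (HEK293 or CHO), 60 min at room temperature in Tris pH 7.4/MgCl2 buffer after 15–30 min compound preincubation. Scintillation counting after filtration; normalized percent effect fitted 4-parameter logistic for IC50.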

[2] = biological target: human A2b adenosine receptor (Homo sapiens (Human), UniProt P29275); assay: A2b radioligand filtration binding assay (tritiated proprietary A2b antagonist, HEK293 membranes); conditions: for IC50: unstarred values: radioligand binding; for A2B binding % inh. @ 10000 nM: unstarred
Sequence of human A2b adenosine receptor (P29275 whole entry): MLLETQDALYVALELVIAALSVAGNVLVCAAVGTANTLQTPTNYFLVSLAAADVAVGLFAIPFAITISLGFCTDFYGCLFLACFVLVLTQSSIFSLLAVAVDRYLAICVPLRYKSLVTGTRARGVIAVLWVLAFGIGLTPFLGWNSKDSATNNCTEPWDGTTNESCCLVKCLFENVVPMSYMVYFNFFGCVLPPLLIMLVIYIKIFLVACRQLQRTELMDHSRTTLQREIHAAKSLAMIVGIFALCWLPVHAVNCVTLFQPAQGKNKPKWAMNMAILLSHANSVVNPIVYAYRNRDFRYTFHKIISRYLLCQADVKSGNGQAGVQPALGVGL
In short: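 Displacement of a tritiated proprietary A2b antagonist from membranes of HEK293 cells recombinantly expressing human A2b receptor, measured by filtration and scintillation counting. Percent effect was normalized to total and non-specific binding and fitted with a 4-parameter logistic to give IC50.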

Sequence of human A2a adenosine receptor (P29274 whole entry): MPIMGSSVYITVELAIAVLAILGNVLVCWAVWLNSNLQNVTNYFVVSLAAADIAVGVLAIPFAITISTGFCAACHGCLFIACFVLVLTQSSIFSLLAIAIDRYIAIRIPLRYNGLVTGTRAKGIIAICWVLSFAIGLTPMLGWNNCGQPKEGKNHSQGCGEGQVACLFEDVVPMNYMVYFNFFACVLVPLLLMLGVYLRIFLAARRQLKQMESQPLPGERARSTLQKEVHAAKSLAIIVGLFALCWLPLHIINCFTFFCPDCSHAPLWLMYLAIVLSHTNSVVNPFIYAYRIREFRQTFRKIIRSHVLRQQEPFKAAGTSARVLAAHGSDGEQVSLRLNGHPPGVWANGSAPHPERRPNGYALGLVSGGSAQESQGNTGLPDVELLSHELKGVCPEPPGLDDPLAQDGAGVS

Row | Structure (SMILES) | IC50 [1] | IC50 [2] | A2A binding % inh. @ 10000 nM ([1]; @ 10000 nM, unstarred) | A2B binding % inh. @ 10000 nM [2]
1 | COc1c(Cl)ccc2c1nc(N)n1nc(C3CCCN(c4cnn(C)c4)C3)nc21 (single isomer, unassigned) [Example 173, (R or S)-8-chloro-7-methoxy-2-(1-(1-methyl-1H-pyrazol-4-yl)piperidin-3-yl)-[1,2,4]triazolo[1,5-c]quinazolin-5-amine] | 3.6 nM | 403 nM | – | –
2 | COc1ccc2c(c1)nc(N)n1nc([C@@H]3CCCN(c4cnn([C@@H]5CCC[C@H]5O)c4)C3)nc21 [Example 187A, (1R,2R)-2-(4-((R)-3-(5-amino-8-methoxy-[1,2,4]triazolo[1,5-c]quinazolin-2-yl)piperidin-1-yl)-1H-pyrazol-1-yl)cyclopentan-1-ol] | 2.8 nM | 1290 nM | – | –
3 | COc1cccc2c1nc(N)n1nc([C@@H]3CCCN(c4cc(C)n(C)n4)C3)nc21 [Example 74, (R)-2-(1-(1,5-dimethyl-1H-pyrazol-3-yl)piperidin-3-yl)-7-methoxy-[1,2,4]triazolol[1,5-c]quinazolin-5-amine] | 1 nM | 3.1 nM | – | –
4 | C[C@H]1CC[C@@H](c2nc3c4ccc(C5CNC5)cc4nc(N)n3n2)CN1c1cnn(CC(C)(C)O)c1 (single isomer, unassigned) [Example 208, 1-(4-((2S,5R or 2R,5S)-5-(5-amino-8-(azetidin-3-yl)-[1,2,4]triazolo[1,5-c]quinazolin-2-yl)-2-methylpiperidin-1-yl)-1H-pyrazol-1-yl)-2-methylpropan-2-ol] | – | – | 10% inh @ 10000 nM % inh. | 5% inh. @ 10000 nM
5 | COc1cccc2c1nc(N)n1nc([C@@H]3CCCN(c4cn(CC(C)(C)O)nc4C)C3)nc21 [Example 30, (R)-1-(4-(3-(5-amino-7-methoxy-[1,2,4]triazolo[1,5-c]quinazolin-2-yl)piperidin-1-yl)-3-methyl-1H-pyrazol-1-yl)-2-methylpropan-2-ol] | 0.4 nM | 103 nM | – | –
6 | COc1cccc2c1nc(N)n1nc(C3CCCN(c4cnn(C)c4)[C@@H]3C)nc21 (stereo partly shown) [Example 128B] | 6300 nM | – | – | 14% inh. @ 10000 nM
7 | COc1cccc2c1nc(N)n1nc(C3CCC(C)N(c4cnn(C(C)(C)CO)c4)C3)nc21 (single isomer, unassigned) [Example 146D] | 0.8 nM | 4.6 nM | – | –
8 | COc1ccc2c(c1)nc(N)n1nc([C@@H]3CCCN(c4cnn(CC(C)(C)O)c4C)C3)nc21 [Example 181, (R)-1-(4-(3-(5-amino-8-methoxy-[1,2,4]triazolo[1,5-c]quinazolin-2-yl)piperidin-1-yl)-5-methyl-1H-pyrazol-1-yl)-2-methylpropan-2-ol] | 0.3 nM | 104 nM | – | –
9 | CCn1cc(N2C[C@@H](c3nc4c5cccc(OC)c5nc(N)n4n3)CC[C@@H]2C)cn1 [Example 140C] | 0.6 nM | 11.2 nM | – | –
10 | COc1ccc2c(c1)nc(N)n1nc([C@@H]3CCCN(c4cnn([C@H]5CCC[C@@H]5O)c4)C3)nc21 [Example 187B, (1S,2S)-2-(4-((R)-3-(5-amino-8-methoxy-[1,2,4]triazolo[1,5-c]quinazolin-2-yl)piperidin-1-yl)-1H-pyrazol-1-yl)cyclopentan-1-ol] | 406 nM | – | – | 16% inh. @ 10000 nM
11 | COc1ccc2c(c1)nc(N)n1nc(C3CCCCN(c4cnn(CC(C)(C)O)c4)C3)nc21 (stereo not shown) [Example 217, 1-(4-(3-(5-amino-8-methoxy-[1,2,4]triazolo[1,5-c]quinazolin-2-yl)azepan-1-yl)-1H-pyrazol-1-yl)-2-methylpropan-2-ol] | 4.6 nM | 207 nM | – | –
12 | COc1cccc2c1nc(N)n1nc(C3CC(F)CN(c4cnn(CC(C)(C)O)c4C)C3)nc21 (stereo not shown) [Example 152, 1-(4-(3-(5-amino-7-methoxy-[1,2,4]triazolo[1,5-c]quinazolin-2-yl)-5-fluoropiperidin-1-yl)-5-methyl-1H-pyrazol-1-yl)-2-methylpropan-2-ol] | 249 nM | – | – | 38% inh. @ 10000 nM
13 | CCc1ccc2c(c1)nc(N)n1nc([C@@H]3CC[C@H](C)N(c4cnn(CC(C)(C)O)c4)C3)nc21 [Example 207, 1-(4-((2S,5R)-5-(5-amino-8-ethyl-[1,2,4]triazolo[1,5-c]quinazolin-2-yl)-2-methylpiperidin-1-yl)-1H-pyrazol-1-yl)-2-methylpropan-2-ol] | 2.8 nM | 125 nM | – | –
14 | COc1cccc2c1nc(N)n1nc([C@@H]3CCCN(c4cn(CC5(O)CCC5)nc4C)C3)nc21 [Example 32, (R)-1-((4-(3-(5-amino-7-methoxy-[1,2,4]triazolo[1,5-c]quinazolin-2-yl)piperidin-1-yl)-3-methyl-1H-pyrazol-1-yl)methyl)cyclobutan-1-ol] | 1.1 nM | 0.7 nM | – | –
15 | COc1cccc2c1nc(N)n1nc([C@@H]3CCCN(c4cnn([C@@H]5CCCC[C@]5(C)O)c4)C3)nc21 [Example 42, (1S,2R)-2-(4-((R)-3-(5-amino-7-methoxy-[1,2,4]triazolo[1,5-c]quinazolin-2-yl)piperidin-1-yl)-1H-pyrazol-1-yl)-1-methylcyclohexan-1-ol] | 1.2 nM | 3.5 nM | – | –

Continued, values first:

Row | IC50 [1] | IC50 [2] | A2A binding % inh. @ 10000 nM ([1]; @ 10000 nM, unstarred) | A2B binding % inh. @ 10000 nM [2] | Structure (SMILES)
16 | 0.4 nM | 462 nM | – | – | COc1ccc2c(c1)nc(N)n1nc([C@@H]3CCCN(c4cn([C@H](C)C(C)(C)O)nc4C)C3)nc21 [Example 186A]
17 | 1.2 nM | 132 nM | – | – | COc1cccc2c1nc(N)n1nc([C@@H]3CCCN(c4cnn(CC5(O)CCCCC5)c4)C3)nc21 [Example 44, (R)-1-((4-(3-(5-amino-7-methoxy-[1,2,4]triazolo[1,5-c]quinazolin-2-yl)piperidin-1-yl)-1H-pyrazol-1-yl)methyl)cyclohexan-1-ol]
18 | 3.2 nM | 1910 nM | – | – | COc1cccc2c1nc(N)n1nc([C@@H]3CCO[C@@H](c4cnn(C)c4)C3)nc21 [Example 139B]
19 | 3.5 nM | 2 nM | – | – | CNC(=O)C(C)(C)n1cc(N2CCC[C@@H](c3nc4c5cccc(OC)c5nc(N)n4n3)C2)cn1 [Example 26, (R)-2-(4-(3-(5-annino-7-methoxy-[1,2,4]triazolo[1,5-c]quinazolin-2-yl)piperidin-1-yl)-1H-pyrazol-1-yl)-N,2-dimethylpropanamide]
20 | 1.3 nM | 168 nM | – | – | COc1cccc2c1nc(N)n1nc([C@@H]3CCC[C@](O)(c4cnn(CC(C)(C)O)c4)C3)nc21 (single isomer, unassigned) [Example 135, (1R, 3R or 1S,3S)-3-(5-amino-7-methoxy-[1,2,4]triazolo[1,5-c]quinazolin-2-yl)-1-(1-(2-hydroxy-2-methylpropyl)-1H-pyrazol-4-yl)cyclohexan-1-ol]
21 | 0.5 nM | 16.2 nM | – | – | COc1cccc2c1nc(N)n1nc(C3CCC(C)N(c4cnn(CC(C)(C)O)c4)C3)nc21 (single isomer, unassigned) [Example 143D]
22 | 2.3 nM | 5.7 nM | – | – | COc1cccc2c1nc(N)n1nc([C@@H]3CCCN(c4cnn([C@@H]5CCCC[C@@H]5O)c4)C3)nc21 [Example 25]
23 | 11.8 nM | 152 nM | – | – | Cn1cc(N2CCCC(c3nc4c5ccc(Cl)cc5nc(N)n4n3)C2)cn1 (single isomer, unassigned) [Example 200, (R or S)-8-chloro-2-(1-(1-methyl-1H-pyrazol-4-yl)piperidin-3-yl)-[1,2,4]triazolo[1,5-c]quinazolin-5-amine]
24 | 1 nM | 116 nM | – | – | COc1ccc2c(c1)nc(N)n1nc([C@@H]3CCCN(c4cnn([C@@H](C)C(C)(C)O)c4)C3)nc21 [Example 185B, (S)-3-(4-((R)-3-(5-amino-8-methoxy-[1,2,4]triazolo[1,5-c]quinazolin-2-yl)piperidin-1-yl)-1H-pyrazol-1-yl)-2-methylbutan-2-ol]
25 | 1.5 nM | 229 nM | – | – | COc1cccc2c1nc(N)n1nc([C@@H]3CCCN(c4cc(C)c(=O)n(C)c4)C3)nc21 [Example 93]
26 | 1.7 nM | 9690 nM | – | – | COc1ccc2c(c1)nc(N)n1nc([C@@H]3C[C@@H](C)CN(c4cnn(CC(C)(C)O)c4)C3)nc21 [Example 195B]
27 | 101 nM | 1820 nM | – | – | COc1cccc2c1nc(N)n1nc([C@H]3CCO[C@H](c4cnn(C)c4)C3)nc21 [Example 139C]
28 | 1.4 nM | 691 nM | – | – | COc1cccc2c1nc(N)n1nc([C@@H]3CCCN(c4ccc(=O)n(C)n4)C3)nc21 [Example 98, (R)-6-(3-(5-amino-7-methoxy-[1,2,4]triazolo[1,5-c]quinazolin-2-yl)piperidin-1-yl)-2-methylpyridazin-3(2H)-one]
29 | 0.1 nM | 85.9 nM | – | – | COc1cccc2c1nc(N)n1nc([C@@H]3CCCN(c4cn(C)nc4C(F)(F)F)C3)nc21 [Example 51, (R)-7-methoxy-2-(1-(1-methyl-3-(trifluoromethyl)-1H-pyrazol-4-yl)piperidin-3-yl)-[1,2,4]triazolo[1,5-c]quinazolin-5-amine]
30 | 221 nM | 5480 nM | – | – | COc1ccc2c(c1)nc(N)n1nc([C@H]3CC[C@@H](C)N(c4cnn([C@@H](C)C(C)(C)O)c4)C3)nc21 [Example 212A]
31 | 0.6 nM | 291 nM | – | – | COc1cccc2c1nc(N)n1nc([C@@H]3CCCN(c4ccc(=O)n(C(C)C)c4)C3)nc21 [Example 96, (R)-5-(3-(5-amino-7-methoxy-[1,2,4]triazolo[1,5-c]quinazolin-2-yl)piperidin-1-yl)-1-isopropylpyridin-2(1H)-one]
32 | 0.7 nM | 151 nM | – | – | COc1cccc2c1nc(N)n1nc([C@@H]3CCCN(c4cn(CC(C)(C)O)nc4C(F)F)C3)nc21 [Example 53, (R)-1-(4-(3-(5-amino-7-methoxy-[1,2,4]triazolo[1,5-c]quinazolin-2-yl)piperidin-1-yl)-3-(difluoromethyl)-1H-pyrazol-1-yl)-2-methylpropan-2-ol]
